# Laboratory results from article PMC10539501 (Nature Communications, 2023).
# Read-outs that look alike come from different tables or passages of the source. Non-standard residues stand in square brackets, D forms with d. Residues, ends and D or L forms follow the SMILES beside them.
# Tests used:
# [1] = blood plasma, cited from earlier work
# Excerpt: Next, we sought to assess the in vivo efficacy of the thioamidated somatostatin analogs post s.c. administration. Somatostatin, first known to inhibit the release of growth hormone, induces its biological effects by interacting with five of its G-protein-coupled receptor subtypes SSTR1-SSTR5[50]. Out of which, the SSTR2 and SSTR5 have gained significant attention due to their role in mediating the inhibition of growth hormone and antiproliferative effects of somatostatin on tumor growth. […]
# pepsin [2] = target: T1, pepsin (Sus scrofa, UniProt P00791); experiment: in vitro; conditions: simulated gastric fluid, pH 1.2
# T1 sequence (P00791 60-385): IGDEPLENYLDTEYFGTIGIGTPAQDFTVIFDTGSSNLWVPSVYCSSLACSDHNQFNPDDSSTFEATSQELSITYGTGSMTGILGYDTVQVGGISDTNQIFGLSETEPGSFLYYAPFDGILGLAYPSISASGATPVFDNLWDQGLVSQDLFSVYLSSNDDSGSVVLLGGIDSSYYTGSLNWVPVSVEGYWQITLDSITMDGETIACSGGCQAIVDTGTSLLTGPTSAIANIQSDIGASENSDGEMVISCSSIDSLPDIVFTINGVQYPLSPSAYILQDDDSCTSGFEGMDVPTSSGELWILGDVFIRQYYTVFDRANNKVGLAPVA
# Procedure: (§1) A stability assessment of the peptides was done in simulated gastric (SGF) and intestinal (SIF) fluids and human liver microsomes. The degradation kinetics of the aliquoted samples at desired time points were analyzed through RP-HPLC.
# [3] = Retention in hydrophobic C18 column by HPLC; conditions: Supplementary Fig 3d, logD7.4 vs tR
# [4] = HDX of amide protons by NMR in DMSO-d6:D2O (8:2)
# Procedure: (§2) As hydrogen bonding and solvation of NH groups play an important role in the permeability of macrocycles, we determined the solvent accessibility of individual amide protons in 10 and 10a–10f by hydrogen-deuterium exchange (HDX) through NMR spectroscopy (Figs. 2a–c).
# (§3) Spectra were recorded on a Bruker AV 500 MHz spectrometer at 25 °C.
# [5] = assay type: physicochemical
# in vivo [6] = conditions: male, Wistar, rat
# Procedure: (§4) All animals were housed individually in the animal facility at Anthem Biosciences Pvt. Ltd and were acclimatized for 3 days. All animals were fasted overnight before dosing, whereas access to water was provided ad libitum. Peptides were administered orally and via s.c. route and blood samples were collected at different time points through a jugular vein catheter.
# [7] = HDX of amide protons by NMR in CDCl3:CD3OD (8:2)
# Procedure: as §2, §3
# in vitro [8] = conditions: pig, simulated intestinal fluid
# Procedure: We next assessed the stability of the macrocyclic peptides in Simulated Intestinal Fluid (SIF)[42], comprising of pancreatin, which is a mixture of several proteases produced by the exocrine cells of the porcine pancreas.
# as §1
# in vitro [9] = conditions: both, human, plasma
# in vitro [10] = conditions: both, human, plasma; remark: listed apart in the source
# in vitro [11] = conditions: human, microsomes
# Procedure: as §1
# [12] = rat, in vivo
# Procedure: as §4
# pepsin [13] = target: T1, pepsin; conditions: pH 1.2
# Procedure: as §1
# [14] = assay type: physicochemical; remark: listed apart in the source
# [15] = PAMPA passive permeability; assay type: in vitro ADME; conditions: Pe;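 also: passive permeability across an artificial membrane in 96-well pre-coated PAMPA plates, which lack transporters and efflux systems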
# Procedure: Encouraged by this, the passive permeability of the analogs was evaluated using an artificial membrane (PAMPA), which measures permeability of compounds in the absence of transporters and efflux systems[32].
# 96-well BD Corning® pre-coated PAMPA plates were used following the supplier’s protocol, details in Supplementary Information.
# SSTR5 = target: T2, SSTR5 (Homo sapiens, UniProt P35346); experiment: GloSensor assay, inhibition of forskolin-induced cAMP production; assay type: cell-based
# T2 construct: expressed in transfected cells; host or cells: HEK-293T (CRL-3216)
# T2 sequence (P35346 whole entry): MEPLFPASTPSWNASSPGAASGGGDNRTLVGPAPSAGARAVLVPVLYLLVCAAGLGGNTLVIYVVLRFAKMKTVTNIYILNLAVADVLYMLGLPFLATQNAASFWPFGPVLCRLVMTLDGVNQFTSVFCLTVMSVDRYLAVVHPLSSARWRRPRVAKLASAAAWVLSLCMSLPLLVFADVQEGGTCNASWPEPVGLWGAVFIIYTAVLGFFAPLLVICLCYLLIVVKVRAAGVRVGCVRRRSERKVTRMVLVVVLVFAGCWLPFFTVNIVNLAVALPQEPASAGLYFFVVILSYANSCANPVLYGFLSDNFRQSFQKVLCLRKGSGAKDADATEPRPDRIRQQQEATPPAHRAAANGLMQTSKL
# Procedure: HEK-293T cells (CRL-3216 from ATCC, procured from NCCS, Pune) were co-transfected with human somatostatin receptor subtypes 2 & 5, plasmid cDNA, and cAMP biosensor (pGloSensorTM-22F plasmid; Promega Corp.) using PEImax. Ligand incubation was followed by the addition and incubation of forskolin (FSK) to the plate. Dose-dependent inhibition of forskolin-induced cAMP production by the peptide ligands was measured using a luminescence plate reader. An elaborate description of the assay setup has been provided in Supplementary Information.
# [16] = system: growth hormone (GH) release; experiment: In vivo inhibition of growth hormone release (sandwich ELISA); parameters: species or system rats
# Procedure: In vivo inhibition of GH. Finally, we estimated the in vivo efficacy of 13 and the thioamidated analogs 13b, 13d, and 13e in suppressing the release of growth hormone (GH) post subcutaneous injection at 250 μg/kg dosage (Fig. 7e). 13a was also included as a negative control to assess its effect on GH release. The rats were bled from their orbital sinus, and the plasma GH levels were evaluated through sandwich ELISA. […] This correlates well with the high plasma concentration of 13 at the initial time points and a rapid drop within 2 h of s.c. administration (Fig. 7c). […] In contrast, the inhibitory effect lasts longer in 13b, 13d, and 13e showing a significant reduction in plasma GH levels within 24–48 h (Fig. 7h). […] The rapid drop in plasma concentration of 13 is responsible for its least in vivo efficacy.
# Animal housing and acclimatization were done at Central Animal Facility, IISc Bangalore, as mentioned in the previous section, following protocols from the IEAC and CPCSEA. […] Samples were processed as discussed in Supplementary Information, and sandwich ELISA was performed to measure the growth hormone level in blood plasma. For acute toxicity, after peptide injection (s.c.), blood samples were collected on the 14th day for liver and kidney function tests.
# in vivo [17] = conditions: male, rat, sc
# Procedure: Subsequently, we selected 13a, 13b, 13d, and 13e for assessing their plasma exposure post single dose subcutaneous injection into male Sprague Dawley rats.
# as §4
# SSTR2 = target: T3, SSTR2 (Homo sapiens, UniProt P30874); experiment: GloSensor assay, inhibition of forskolin-induced cAMP production; assay type: cell-based
# T3 construct: expressed in transfected cells; host or cells: HEK-293T (CRL-3216)
# T3 sequence (P30874 whole entry): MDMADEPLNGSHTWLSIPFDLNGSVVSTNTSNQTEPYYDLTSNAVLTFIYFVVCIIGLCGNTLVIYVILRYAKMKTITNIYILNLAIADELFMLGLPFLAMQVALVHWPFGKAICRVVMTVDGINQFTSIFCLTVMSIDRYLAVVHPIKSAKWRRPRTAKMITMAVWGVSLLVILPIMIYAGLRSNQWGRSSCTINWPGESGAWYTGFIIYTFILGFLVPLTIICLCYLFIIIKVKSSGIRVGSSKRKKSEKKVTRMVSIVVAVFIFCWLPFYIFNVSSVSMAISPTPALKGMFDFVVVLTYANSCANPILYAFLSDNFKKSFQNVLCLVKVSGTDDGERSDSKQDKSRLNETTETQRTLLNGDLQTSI
# physchem = conditions: pH 7.4
# [18] = 20% CD3OD in CDCl3, % remaining after 24 hours
# Procedure for human liver microsomes: as §1
compound,measurement,setting,value
C[C@H](N)C(=O)NCC(=O)N[C@H]1CSSC[C@@H](C(=O)O)NC(=O)[C@H](CO)NC(=O)[C@H]([C@@H](C)O)NC(=O)[C@H](Cc2ccccc2)NC(=O)[C@H]([C@@H](C)O)NC(=O)[C@H](CCCCN)NC(=O)[C@H](Cc2c[nH]c3ccccc23)NC(=O)[C@H](Cc2ccccc2)NC(=O)[C@H](Cc2ccccc2)NC(=O)[C@H](CC(N)=O)NC(=O)[C@H](CCCCN)NC1=O [SRIF-14],plasma half-life,[1],3 min
same,plasma half-life,[1]; listed as native somatostatin,~ 3 min
"CC(C)C[C@@H]1NC(=O)[C@H](Cc2ccc(O)cc2)NC(=O)[C@H]2CCCN2C(=O)[C@H](CC(C)C)NC(=O)[C@H](CC(C)C)NC(=O)[C@@H](CC(C)C)NC1=O [compound 10, cyclo(-D-Leu^1-Leu-Leu-D-Pro-Tyr-Leu^6-)] (cyclo(LL[dP]YL[dL]))",half-life,pepsin [2],0.2 h
same,remaining at 5 min,pepsin [2],67%
same,remaining at 10 min,pepsin [2],54%
same,remaining at 20 min,pepsin [2],40%
same,remaining at 0.5 h,pepsin [2],34%
same,remaining at 1 h,pepsin [2],22%
same,remaining at 2 h,pepsin [2],16%
same,remaining at 4 h,pepsin [2],10%
same,remaining at 8 h,pepsin [2],6%
same,remaining at 12 h,pepsin [2],2%
same,remaining at 24 h,pepsin [2],0%
same,tR,[3],9.3 min
same,Half-life of D-Leu1 amide proton (HDX),"[4]; HDX by NMR, 20% D2O in DMSO-d6",0.25 h
same,Half-life of Leu2 amide proton (HDX),"[4]; HDX by NMR, 20% D2O in DMSO-d6",1.52 h
same,Half-life of Leu3 amide proton (HDX),"[4]; HDX by NMR, 20% D2O in DMSO-d6",3.28 h
same,Half-life of Leu6 amide proton (HDX),"[4]; HDX by NMR, 20% D2O in DMSO-d6",7.83 h
same,Half-life of Tyr5 amide proton (HDX),"[4]; HDX by NMR, 20% D2O in DMSO-d6",0.817 h
same,Half lives,human liver microsomes,6.7
same,Intrinsic clearance (CLint) Avg,human liver microsomes; human,225 µL/min/mg
same,% solubility,[5],97%
same,AUC(0-t),in vivo [6]; iv,548 ng·h/mL
same,Cmax,in vivo [6]; iv,1050 ng/mL
same,MRT,in vivo [6]; iv,1.6 h
same,Vd,in vivo [6]; iv,4.1 L/kg
same,clearance,in vivo [6]; iv,28.4 mL/min/kg
same,AUC(0-t),"in vivo [6]; po, 10 mg/kg",0.9 ng·h/mL
same,Cmax,"in vivo [6]; po, 10 mg/kg",3.5 ng/mL
same,MRT,"in vivo [6]; po, 10 mg/kg",0.2 h
same,Half-life of D-Leu1 amide proton (HDX),[7]; 20% CD3OD in CDCl3,7.25 h
same,Half-life of Leu2 amide proton (HDX),[7]; 20% CD3OD in CDCl3,2 min
same,Half-life of Leu3 amide proton (HDX),[7]; 20% CD3OD in CDCl3,> 24 h
same,Half-life of Leu6 amide proton (HDX),[7]; 20% CD3OD in CDCl3,> 24 h
same,Half-life of Tyr5 amide proton (HDX),[7]; 20% CD3OD in CDCl3,1.75 h
same,"% intact NH, Leu3",[7]; [18],72%
same,"% intact NH, Leu6",[7]; [18],90%
same,t1/2 in human blood plasma,,8 h
same,half-life,in vitro [8],0.267 h
same,remaining at 10 min,in vitro [8],57.1%
same,remaining at 0.5 h,in vitro [8],39%
same,remaining at 1 h,in vitro [8],30.7%
same,remaining at 2 h,in vitro [8],13.4%
same,remaining at 4 h,in vitro [8],12%
same,remaining at 8 h,in vitro [8],7.3%
same,remaining at 12 h,in vitro [8],5.5%
same,remaining at 24 h,in vitro [8],3%
same,fraction unbound,in vitro [9],0.51
same,half-life,in vitro [10],8 h
same,remaining at 1 h,in vitro [10],86%
same,remaining at 3 h,in vitro [10],80%
same,remaining at 5 h,in vitro [10],67%
same,remaining at 7 h,in vitro [10],59%
same,remaining at 9 h,in vitro [10],43%
same,remaining at 12 h,in vitro [10],37%
same,remaining at 24 h,in vitro [10],24%
same,remaining at 36 h,in vitro [10],19%
same,remaining at 48 h,in vitro [10],13%
same,remaining at 60 h,in vitro [10],4%
same,remaining at 72 h,in vitro [10],4%
same,remaining at 5 min,in vitro [11],55%
same,remaining at 10 min,in vitro [11],40%
same,remaining at 20 min,in vitro [11],33%
same,remaining at 0.5 h,in vitro [11],29%
same,remaining at 0.75 h,in vitro [11],22%
same,remaining at 1 h,in vitro [11],14%
same,%F,[12],0%
same,time over which the peptide is detectable in plasma,"[12]; po, 10 mg/kg",≤ 1 h
same,Half lives (SGF) set1,pepsin [13],10 min
same,logD heptane ethylene glycol,[14],0.46
"C[C@@H](O)[C@@H]1NC(=O)[C@H](CCCCN)NC(=O)[C@@H](Cc2c[nH]c3ccccc23)NC(=O)[C@H](Cc2ccccc2)NC(=O)[C@@H]2CCCN2C(=O)[C@H](Cc2ccccc2)NC1=O [compound 13, cyclo(-D-Trp^1-Lys-Thr-Phe-Pro-Phe^6-)] (cyclo(PF[dW]KTF))",t1/2 for all HNs (HDX),"[4]; HDX experiment by NMR, solvent not stated at the place (Supplementary Fig. 18)",< 5 min
same,"Half-lives (min), amide proton D-Trp1","[4]; Supplementary Fig 18b, HDX of amide proton of D-Trp1, solvent not given",>5 min
same,"Half-lives (min), amide proton Lys2","[4]; Supplementary Fig 18b, HDX of amide proton of Lys2, solvent not given",>5 min
same,"Half-lives (min), amide proton Phe4","[4]; Supplementary Fig 18b, HDX of amide proton of Phe4, solvent not given",>5 min
same,"Half-lives (min), amide proton Phe6","[4]; Supplementary Fig 18b, HDX of amide proton of Phe6, solvent not given",>5 min
same,"Half-lives (min), amide proton Thr3","[4]; Supplementary Fig 18b, HDX of amide proton of Thr3, solvent not given",>5 min
same,Papp,[15],1.34 ×10⁻⁶ cm/s
same,t1/2 in human blood plasma,,15 ± 0.9 h
same,IC50,SSTR5,105 ± 24.2 nM
same,AUC 0_24,"[16]; growth hormone AUC 0-24 h, mean of n = 3",504 ng·h/mL
same,AUC 0_48,"[16]; growth hormone AUC 0-48 h, mean of n = 3",1371 ng·h/mL
same,AUC 24_48,"[16]; growth hormone AUC 24-48 h, mean of n = 3",817 ng·h/mL
same,inhibition of unstimulated GH release,"[16]; rats, 250 μg/kg s.c., plasma GH by sandwich ELISA over 48 h",significant inhibition
same,level at 0.5 h,in vivo [17]; Sprague Dawley,195 ng/mL
same,level at 1 h,in vivo [17]; Sprague Dawley,128 ng/mL
same,level at 2 h,"in vivo [17]; Sprague Dawley, 250 ug/kg",8 ng/mL
same,half-life,in vivo [17]; Sprague-Dawley,0.3 ± 0.05 h
same,IC50,SSTR2,16.6 ± 4.2 nM
same,half-life,in vitro [8],1.8 h
same,fraction unbound,in vitro [9],0.24
same,half-life,in vitro [10],14 h
same,logD,physchem,-1.23
same,logD heptane ethylene glycol,[14],-1.43
